Source: publication PMC4718634, “Murine GPRC6A Mediates Cellular Responses to L-Amino Acids, but Not Osteocalcin Variants” (PLoS ONE, 2016)
“Also recorded” adds a separate entry of the source. Where two headings read alike, the source gives them in different places.

Experiments:
[1] = target: T1, mGPRC6A (mouse GPRC6A) (Mus musculus, UniProt Q8K4Z6); experiment: Inositol phosphate (IP-One HTRF) accumulation, FlpIn-TREx-HEK293-mGPRC6A cells; format: cell-based; details: for EC50: 30 min, HTRF, HBSS pH 7.2, mean ± SEM of at least three independent experiments, read-out: pEC50, inositol phosphate accumulation (converted)
T1 sequence (Q8K4Z6 21-928): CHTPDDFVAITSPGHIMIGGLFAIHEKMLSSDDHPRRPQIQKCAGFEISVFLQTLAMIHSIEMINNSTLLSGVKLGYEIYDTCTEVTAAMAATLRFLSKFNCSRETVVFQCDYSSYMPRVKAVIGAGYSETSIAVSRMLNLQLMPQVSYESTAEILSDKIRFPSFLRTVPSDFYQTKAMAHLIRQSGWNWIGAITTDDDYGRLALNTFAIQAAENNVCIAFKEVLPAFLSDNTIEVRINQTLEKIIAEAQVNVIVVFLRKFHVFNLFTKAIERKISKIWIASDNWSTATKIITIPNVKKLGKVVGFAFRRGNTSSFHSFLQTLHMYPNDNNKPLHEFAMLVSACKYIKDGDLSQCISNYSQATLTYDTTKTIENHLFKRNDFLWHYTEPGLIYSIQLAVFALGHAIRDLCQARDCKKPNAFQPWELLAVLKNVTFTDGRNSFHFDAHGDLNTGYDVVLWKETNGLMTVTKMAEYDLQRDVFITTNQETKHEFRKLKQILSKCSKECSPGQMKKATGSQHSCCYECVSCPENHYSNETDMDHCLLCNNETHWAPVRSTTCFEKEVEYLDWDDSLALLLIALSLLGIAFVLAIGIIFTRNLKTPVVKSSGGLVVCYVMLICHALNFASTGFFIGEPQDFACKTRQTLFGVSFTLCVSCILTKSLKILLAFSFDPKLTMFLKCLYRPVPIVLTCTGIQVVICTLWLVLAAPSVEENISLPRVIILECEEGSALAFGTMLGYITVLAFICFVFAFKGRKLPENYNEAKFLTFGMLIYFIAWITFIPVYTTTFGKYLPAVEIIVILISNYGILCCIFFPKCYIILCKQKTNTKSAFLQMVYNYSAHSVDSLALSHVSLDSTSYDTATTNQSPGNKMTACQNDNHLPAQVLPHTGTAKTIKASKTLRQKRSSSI
Description: pcDNA 5/FRT/TO constructs were isogenically integrated into a FlpIn-TREx-HEK293 cell line (Life Technologies). FlpIn-TREx-HEK293-mGPRC6A and FlpIn-TREx-HEK293-hGPRC6A cells were then selected using 600 μg/ml hygromycin and 5 μg/ml blasticidin and grown in culture medium consisting of Dulbecco’s Modified Eagle Medium (DMEM), supplemented with 10% (v/v) foetal bovine serum (FBS) at 37°C in 5% CO2 and were sub-cultured in a 1:3 ratio every 3–4 days. Cells were cultured overnight in the presence of 1 μg/ml tetracycline to induce GPRC6A expression. […] 48 h after transfection, cells were selected using 3 μg/ml puromycin and grown as above.
Inositol phosphate (IPX) accumulation experiments were performed using the IP-One HTRF® assay kit (Cisbio, France). Briefly, 24h after transfection with G proteins (as above), 10^5 cells were seeded per well in PDL-coated, 96-well white plates and incubated overnight. Cells were then washed 2 x 2h at 37°C in HBSS buffer (pH 7.2) containing 20 mM HEPES, 3.5 mM NaHCO3, 1 mM CaCl2 and 0.1% (w/v) BSA. Test compounds were then prepared in the kit stimulation buffer containing 2 mM CaCl2; cells were then incubated with 70 μl of drugs for 30 min, after which 15 μl of both IP1-D2 and Ab-Cryp were added to the cells, followed by a 1 h incubation at RT. Plates were read using an Envision plate reader (Perkin Elmer), using an HTRF protocol. Results were calculated from the 665nm / 620nm HTRF ratio (Ratio = A665nm/A620nm x 10^4) and expressed as a percentage of the maximal response obtained.
Concentration-response data were analysed using a three or four parameter logistic function (Motulsky & Christopoulos, 2004) to generate estimates of agonist potency (LogEC50). Data for all HEK293 assays represent the mean ± SEM of at least three independent experiments (except cell impedance, n = 2). For GLP-1 release, the data represent mean ± SEM of three to five independent experiments (except for OCN, wash; n = 2). For insulin release assays, data represent the mean ± SEM of three independent experiments (except for islet studies; n = 2). Insulin release data were normalised to the response to vehicle in either low or high [glucose]. Statistical analysis for GLP-1 release data were performed by one-way ANOVA, followed by Sidak’s multiple comparisons test (treating wash / no wash datasets separately). Statistical analyses for insulin release data were performed by two-way ANOVA (with [glucose] and drug treatment as group variables), followed by Sidak’s multiple comparisons test. Where only high [glucose] groups were evaluated, statistical analysis was by one-way ANOVA followed by Sidak’s multiple comparisons test.

[2] = test system: non-tetracycline induced or parental HEK293 cells; experiment: Inositol phosphate accumulation, parental or non-tetracycline-induced HEK293 cells; details: G protein-transfected parental HEK293 or non-tetracycline-induced cells; Fig 1B
[3] = test system: un-induced FlpIn-TREx-HEK293-mGPRC6A cells; experiment: Label-free cell impedance, un-induced FlpIn-TREx-HEK293-mGPRC6A cells; format: cell-based; details: Fig 4
Description: 2.5 x 10^7 FlpIn-TREx-HEK293-mGPRC6A cells were seeded in a T175 flask and incubated overnight at 37°C in 5% CO2. Cells were then transfected with 35 μg of plasmid DNA (GαqG66D) with Lipofectamine LTX according to manufacturer's instructions, then incubated for 24h at 37°C in 5% CO2. Prior to the experiment, a background reading for each E-plate 96 (Bio-Rad, CA, USA) was measured after addition of 100 μl DMEM + 10% FBS per well. Cells were recovered using Versene and seeded at a 10^5 cells/well density in 200 μl DMEM + 10% FBS (containing 1 μg/ml tetracycline where indicated). Cells were washed 2 x 2 h in HBSS buffer (pH 7.2) containing 20 mM HEPES, 1 mM CaCl2 and 0.1% BSA (w/v) in a total volume of 180 μl. Test compounds (20 μl at 10x final concentration) were added to the plate and cell impedance was monitored for 3 h. Cell index was normalised to the buffer response (minus the baseline response at zero time point).

[4] = test system: immortalised cell lines; details: blocked by siRNA targeting Gprc6a; ref [12], [22]; cited from earlier work
Source text: (§1) Additional interest in GPRC6A has emerged due to several studies reporting that it mediates the metabolic and endocrine effects of the de-carboxylated form of the osteoblast-derived peptide, osteocalcin (OCN).

[5] = test system: mice; details: injected into the peritoneal cavity; WT vs Gprc6a KO mice; ref [12]; cited from earlier work
Source text: as §1

NCCC[C@H](N)C(=O)O [L-ornithine]
EC50 ([1]; co-expression of GαqG66D): 100 µM
EC50 ([1]; co-expression of wild-type Gαq): 1000 µM
potency of L-ornithine with GαqG66D compared to wild-type Gαq ([1]; inositol phosphate accumulation): ten-fold higher potency
inositol phosphate response in non-expressing cells [2]: absent in non-tetracycline induced or parental HEK293 cells
cell impedance (cell index) response [3]: only mGPRC6A-expressing cells responded to L-ornithine; also recorded: increases cellular impedance only in tetracycline-induced cells

OCN: osteoblast-derived peptide, osteocalcin; variant not specified at the place (YLYQWLGAPVPYPDPLEPRREVCELNPDCDELADHIGFQEAYRRFYGPV; UniProt P02818 52-100, looked up)
GLP-1 release [4]: OCN-mediated insulin and glucagon-like peptide (GLP)-1 release
circulating insulin levels [5]: increases circulating insulin levels in WT but not in Gprc6a KO mice
